Patent US8912184B1, “Therapeutic and diagnostic methods” (Alzheimer's Institute of America, Inc., priority 2010, dated 2014)
Read-outs that look alike come from different tables or passages of the source.

Key:
HCT116 xenograft tumors [1] = assay: NAD levels in tumor lysates of HCT116 xenograft mice; assay type: in vivo; conditions: single oral dose on day 0, after two days
Description: (§1) Exemplary Compound A was tested for its ability to deplete NAD levels and promote tumor regression in an HCT116 (i.e., a Naprt-proficient cancer) murine xenograft model. Three million HCT116 human colon carcinoma cells were injected subcutaneously into nu/nu mice to form tumors. Dosing was started ten days later when median tumor volume was >100 mm^3.
Exemplary Compound A was administered orally once on day 0 (arrow) to HCT116 tumor-bearing xenograft mice and NAD levels were determined for tumor lysates every other day for 8 days.

[2] = Maximum tolerated dose in mice; conditions: nu/nu, mouse, in vivo, oral
HCT116 xenograft tumors [3] = assay: HCT116 human colon carcinoma murine xenograft, tumor growth/regression; assay type: in vivo, nu/nu mice
Description: as §1
Exemplary Compound A was administered orally to HCT116 tumor-bearing xenograft mice once (arrow) at the maximum tolerated dose of 75 mg/kg with or without simultaneous delivery of NA by Alzet pump (470 mg/kg/day for three days) (FIG. 8(b)).
The effect of weekly administration of Exemplary Compound A on tumor growth was examined in murine HCT116 xenograft models (FIG. 8(c)). HCT116 tumor-bearing xenograft mice were orally dosed with 75 mg/kg Exemplary Compound A weekly for three cycles (arrows), resulting in a maximal tumor response of 10% regression on day 18.
The effect of daily administration of Exemplary Compound A on tumor growth was examined in murine HCT116 xenograft models (FIG. 8(d)). HCT116 tumor-bearing xenograft mice were orally dosed with 10 mg/kg Exemplary Compound A daily for 21 days (black bar), resulting in a maximal tumor response of 32% regression on day 11.

HCT116 cells = assay: NAD measured in cellular lysates (NAD depletion) of HCT116 cells; assay type: cell-based, human; conditions: for IC50: Homo sapiens
Description: NAD in cells was measured by modification of existing protocols (Lee, H. I., et al. Exp. Mol. Med. 40, 246-253 (2008)). MCF-10A cells stably transduced with the PIK3CA(H1047R) oncogene were seeded in 96 well plates at very high density (100% confluence) and allowed to settle overnight. Test compound dissolved in DMSO was added and drug incubation proceeded for 20-24 hours. Cells were washed with PBS and harvested by incubation in 25 μL 0.5 M perchloric acid (HClO4) followed by vigorous shaking at 4° C. for 15 minutes. Acidic cell lysates were neutralized by adding 8 μL of 2 M KOH/0.2 M K2HPO4. The entire lysate volume was transferred to a centrifuge plate and spun at 3000 rpm in a table top centrifuge (4° C.) for 5 minutes to clear the precipitate. Lysate was assayed for both NAD and ATP. For NAD measurement, 10 μL lysate from the centrifuged plate was added to 90 μL of reaction solution in Costar 96 half-well plates (Corning, Corning, N.Y.). […]. Reactions were allowed to proceed for 1 hour at room temperature, after which time fluorescence was read on a Gemini plate reader as described above.
Using such methods NAD Depeletion was followed in lysates of Naprt-proficient HCT116 cells, exposed to Exemplary Compound A, as shown in FIG. 4 (a). […].
Kinetics of NAD and ATP depletion in Naprt1-proficient HCT116 cells induced by Exemplary Compound A was studied using the assays described above. HCT116 cells were treated with 8.5 nM Exemplary Compound A and cellular NAD and ATP were measured at various times.
Potency of Exemplary Compound A as a function of time of exposure was also studied using the assays described above. Cells were treated with a range of Exemplary Compound A concentration for varying times of exposure, and IC50 values for NAD and ATP depletion were determined. […].

cell lines = assay: NA rescue phenotype of cell lines treated with Nampt inhibitor (Nicotinic Acid Rescue Cytotoxicity Assays); assay type: cell-based
Description: Cell lines were treated with a fixed dose of Exemplary Compound A and screened for NA rescue and Naprt1 expression by immunoblotting and qRT-PCR (Table 3). […] The 176 cell lines included 5 normal (non-cancerous) cell lines and 3 primary cell lines (italicized in the table), all of which rescued. Naprt1 was quantified by western blotting and qRT-PCR in 164 and 123 of the 176 cell lines, respectively. […] A statistically significant (p value <0.0001) correlation existed between a NA rescue phenotype and Naprt1 protein or mRNA expression levels.
Additionally, Nicotinic Acid (NA) rescue of cytotoxicity of Nampt inhibitors was assessed by two distinct methods. In the first method, Nampt1 inhibitor cytotoxicity was evaluated in the presence and absence of exogenous nicotinic acid (NA) at a fixed concentration. […] Twenty four hours after cells were plated, the media was removed and replaced with media containing 10 μM nicotinic acid. Compounds were then immediately added. Cell viability was then assessed at 72 h.
Cell viability was then assessed at 72 h.

[4] = of 176 cell lines tested, fixed dose

In the case of `O=C(NCc1cccnc1)Nc1ccc(COc2ccccc2-c2ccccc2)cc1` [Exemplary Compound A, 1-{4-[(biphenyl-2-yloxy)methyl]phenyl}-3-(pyridin-3-ylmethyl)urea], the “depletion of NAD in tumor lysates” value (HCT116 xenograft tumors [1]) is reported as 94%, the MTD [2] is reported as 75 mg/kg and the “maximal tumor response, regression” value (HCT116 xenograft tumors [3]; oral 10 mg/kg daily for 21 days, day 11) is reported as 32%. The “maximal tumor response, regression” value (HCT116 xenograft tumors [3]; oral 75 mg/kg weekly for three cycles, day 18) was 10%, the “tumor regression induced by single dose, in the presence of NA” value (HCT116 xenograft tumors [3]; oral once 75 mg/kg, NA by Alzet pump 470 mg/kg/day for three days) was “completely prevented” and the “NAD depletion reached before loss of ATP initiated” value (HCT116 cells; HCT116 cells, 8.5 nM) was greater than 90%. The IC50 (HCT116 cells; HCT-116, 0.5 h, exposure 30 min, read-out: potency (IC50) for NAD depletion) was 23 nM, the IC50 (HCT116 cells; HCT-116, 24 h, HCT116 cells, 24 h, absence of 10 μM NA, read-out: IC50 NAD depletion) was 0.26 nM and the IC50 (HCT116 cells; HCT-116, 24 h, HCT116 cells, 24 h, presence of 10 μM NA, read-out: IC50 NAD depletion) was greater than 1000 nM. The IC50 (HCT116 cells; HCT-116, 48 h, after 48 h exposure, read-out: potency (IC50) for NAD depletion) was roughly 0.6 nM, the “Rescuable by NA?” value (cell lines; A172, glioma) was “no” and the “Rescuable by NA?” value (cell lines; COLO-205, colorectal) was “yes”. For the same compound, the “Rescued by NA? (partial indicates <70% rescue)” value (cell lines; DEL cells (lymphoma)) was “Y (partial)”, the “Rescuable by NA?” value (cell lines; DMS-114, SCLC) was “yes” and the “Rescued by NA? (partial indicates <70% rescue)” value (cell lines; H4 cells (brain; neuroglioma)) was “Y (partial)”. The “Rescuable by NA?” value (cell lines; HCC827, NSCLC) was “no”, the “Rescuable by NA?” value (cell lines; HCT-116, colorectal) was “yes” and the “Rescuable by NA?” value (cell lines; HT29, colorectal) was “yes”. The “Rescuable by NA?” value (cell lines; HT-1080, fibrosarcoma) was “no”, the “Rescued by NA? (partial indicates <70% rescue)” value (cell lines; Hepa1-6 cells (mouse; hepatoma)) was “Y (partial)” and the “Rescued by NA? (partial indicates <70% rescue)” value (cell lines; MOLP-8 cells (myeloma)) was “Y (partial)”. The “Rescued by NA? (partial indicates <70% rescue)” value (cell lines; MONO-MAC-6 cells (lymphocytic leukemia)) was “Y (partial)”, the “Rescuable by NA?” value (cell lines; MiaPaCa2, pancreatic) was “no” and the “Rescuable by NA?” value (cell lines; NCI-H82, SCLC) was “yes”. For the same compound, the “Rescuable by NA?” value (cell lines; NCI-H460, NSCLC) was “no”, the “Rescuable by NA?” value (cell lines; NCI-H522, NSCLC) was “no” and the “Rescued by NA? (partial indicates <70% rescue)” value (cell lines; NCI-H596 cells (lung (NSCLC))) was “Y (partial)”. For the same compound, the “Rescuable by NA?” value (cell lines; NCI-H929, multiple myeloma) was “no”, the “Rescuable by NA?” value (cell lines; NCI-H1650, NSCLC) was “no” and the “Rescuable by NA?” value (cell lines; NCI-N87, gastric) was “yes”. The “Rescued by NA? (partial indicates <70% rescue)” value (cell lines; NOMO-1 cells (myelogenous leukemia)) was “Y (partial)”, the “Rescuable by NA?” value (cell lines; OCI-Ly19, DLBCL (NHL)) was “yes” and the “Rescuable by NA?” value (cell lines; OPM-2, multiple myeloma) was “no”. The “Rescuable by NA?” value (cell lines; OVCAR-8, ovarian) was “yes”, the “Rescued by NA? (partial indicates <70% rescue)” value (cell lines; PFSK-1 cells (brain; malignant neuroectodermal tumor)) was “Y (partial)” and the “Rescued by NA? (partial indicates <70% rescue)” value (cell lines; RPMI-8226 cells (myeloma)) was “Y (partial)”. For the same compound, the “Rescuable by NA?” value (cell lines; SF-295, glioma) was “no”, the “Rescued by NA? (partial indicates <70% rescue)” value (cell lines; SKM-1 cells (myelogenous leukemia)) was “Y (partial)” and the “Rescued by NA? (partial indicates <70% rescue)” value (cell lines; SR cells (lymphoma)) was “Y (partial)”. The “Rescued by NA? (partial indicates <70% rescue)” value (cell lines; SU-DHL-4 cells (lymphoma)) was “Y (partial)”, the “Rescuable by NA?” value (cell lines; SU-DHL-5, DLBCL (NHL)) was “no” and the “Rescued by NA? (partial indicates <70% rescue)” value (cell lines; SU-DHL-8 cells (lymphoma)) was “Y (partial)”. The “Rescued by NA? (partial indicates <70% rescue)” value (cell lines; SUP-M2 cells (lymphoma)) was “Y (partial)”, the “Rescuable by NA?” value (cell lines; U-87MG, glioma) was “no” and the “Fraction not rescued by NA” value (cell lines; bladder, 1 cell line tested) was 0%. For the same compound, the “Fraction not rescued by NA” value (cell lines; brain, 30 cell lines tested) was 53%, the “Fraction not rescued by NA” value (cell lines; breast, 7 cell lines tested) was 0% and the “Fraction not rescued by NA” value (cell lines; colon, 6 cell lines tested) was 0%. The “Fraction not rescued by NA” value (cell lines; fibrosarcoma, 5 cell lines tested) was 20%, the “Fraction not rescued by NA” value (cell lines; gastric, 1 cell line tested) was 0% and the “Fraction not rescued by NA” value (cell lines; kidney, 5 cell lines tested) was 20%. For the same compound, the “Fraction not rescued by NA” value (cell lines; liver, 4 cell lines tested) was 25%, the “Fraction not rescued by NA” value (cell lines; lung, NSCLC, 26 cell lines tested) was 27% and the “Fraction not rescued by NA” value (cell lines; lung, small cell, 7 cell lines tested) was 14%. For the same compound, the “Fraction not rescued by NA” value (cell lines; lymphocytic leukemia, 6 cell lines tested) was 17%, the “Fraction not rescued by NA” value (cell lines; lymphoma, 16 cell lines tested) was 38% and the “Fraction not rescued by NA” value (cell lines; melanoma, 3 cell lines tested) was 0%. The “Fraction not rescued by NA” value (cell lines; myelogenous leukemia, 10 cell lines tested) was 10%, the “Fraction not rescued by NA” value (cell lines; myeloma, 9 cell lines tested) was 44% and the “Rescued by NA? (partial indicates <70% rescue)” value (cell lines; no.11 cells (brain; glioma, anaplastic)) was “Y (partial)”. The “number of cell lines completely rescued by NA” value (cell lines; [4]) was 113, the “number of cell lines partially rescued by NA” value (cell lines; [4]) was 16 and the “number of cell lines that did not rescue with NA” value (cell lines; [4]) was 47. The “Fraction not rescued by NA” value (cell lines; osteosarcoma, 6 cell lines tested) was 50%, the “Fraction not rescued by NA” value (cell lines; ovary, 3 cell lines tested) was 0% and the “Fraction not rescued by NA” value (cell lines; pancreas, 7 cell lines tested) was 14%. For the same compound, the “cancer cell lines that failed to be rescued or were only partially rescued by NA” value (cell lines; panel of 147 cancer cell lines) was 38% and the “Fraction not rescued by NA” value (cell lines; prostate, 2 cell lines tested) was 0%.
